Reference: US5866576A, “Epoxide-containing compounds” (Cell Therapeutics, Inc., priority 1997, dated 1999)

Experiments:
[1] = test system: Balb/3T3 cells; assay: Balb/3T3 cytotoxicity assay (BCECF-AM); type: cell-based; settings: FIGS. 8C, 8D
Method: In conjuction with the Balb/3T3 proliferation assay conducted above, a Balb/3T3 cytotoxicity assay was conducted to determine that the inhibition on proliferation was not due to cytotoxic effects. This assay is similar to the assay decribed above except tritiated thymidine was not added and after 18-24 hours incubation with PDGF/BB and a lOuM solution of 2,7-bis-(2-carboxyethyl)-5(and-6)carboxyflouresceinacetoxymethyl ester (BCECF-AM) was added for 30 minutes at 37° C. (BCECF is a compound that when cleaved by esterases, yields a fluorescent product in viable cells only, therefore providing a measure of viable cell numbers). Following sufficient incubation, BCECF is replaced with PBS and the plate examined with flourescence in a Millipore "cytofluor." The data is compiled and plotted.

[2] = test system: Balb/3T3 cells; assay: PDGF-stimulated Balb/3T3 cell proliferation; type: cell-based; settings: FIGS. 8A (1409), 8B (1560); PDGF/BB
Method: Balb/3T3 cells respond vigorously to PDGF stimulation, and are useful in vitro models for further study of PDGF-induced proliferation. Disregulated PDGF-proliferative response has been linked to a variety of diseases, including, e.g., restenosis, atherosclerosis, fibrosis, and tumor cell angiogenesis.
Balb/3T3 cells were maintained in exponential growth. The cells were removed from a flask with EDTA and plated into 96 well plates at 3000 cells/well. After 48 hours, the media was removed, the cells washed once with PBS and serum free media and the cultures allowed to rest for a 24 hour period. Inventive compounds were added to the wells containing media and Balb/3T3 cells one hour prior to incubation with PDGF/BB, added at constant 10 μM concentrations along with 1 μ Ci 3-H-thymidine dye. Cells were subsequently incubated for 18-24 hours, harvested, and incorporated thymidine assessed on a Packard Topcount to determine degree of cell proliferation. Data obtained in this assay was used to determine experimental 50% inhibition concentrations for the inventive compounds tested.

[3] = test system: Ramos B-cell tumor line; assay: B-cell proliferation, Ramos line stimulated with anti-mu or PMA (FIG. 3); type: cell-based, human; settings: 250 μM, anti-mu or PMA (5 nM)
Method: A Ramos […] tumor line was treated with 250 μM 1808 or 1605 for one hour prior to stimulation of proliferation with anti-mu antibody or phorbol myristic acid (PMA, 5 nM). One day later, proliferation was measured with tritiated thymidine.
This example illustrates a comparison of inventive compounds nos. 1605 and 1808 for inhibition of B-cell proliferation. A Ramos B-cell tumor line was treated with 250 μM 1808 or 1605 for one hour prior to stimulation of proliferation with anti-mu antibody or PMA (5 nM). One day later, proliferation was measured with tritiated thymidine.

[4] = test system: U937 cells; human umbilical vein endothelial cells (HUVEC); assay: adhesion of U937 cells to TNF-α activated HUVEC (FIG. 5); type: cell-based; settings: TNF-α 20 ng/ml, 12 hours
Method: HUVEC cells were activated with 20 ng/ml of TNF for 12 hrs. Drug was added to each culture (except for controls) one hour prior to adding TNF. U937 cells, preloaded with the fluorescent dye BCECF, were added to each culture well and then washed. Cell adhesion was determined on a fluorescence plate reader, showing a decrease in cell adhesion caused by all three drugs in a dose dependent fashion.
This example illustrates a comparison of the effects of inventive compounds nos. 1605, 1808 and 1906 to inhibit adhesion of U937 cells to activated human umbilical vein endothelial cells (HUVEC). HUVEC cells (4000/ well, seeded 72 hours in advance) were activated with 20 ng/ml of TNF-α for 12 hours. Drug was added to the HUVEC (except for controls) one hour prior to adding TNF-α. U937 cells, preloaded with the fluorescent dye BCECF, were added to each culture well and then washed twice with PBS. Cell adhesion was determined by measuring the fluorescence of adhering U937 cells on a fluorescence plate reader.

[5] = test system: human stromal cells; assay: PDGF-induced proliferation of human stromal cells (FIG. 4); type: cell-based; settings: PDGF-BB 50 ng/ml
Method: Human stromal cells were starved in serum-free media for 24 hours and then stimulated with 50 ng/ml of PDGF-BB. The drugs were added at various indicated concentrations one hour prior to PDGF stimulation. Tritiated thymidine was added for 24 hrs at the time of PDGF stimulation to measure cellular proliferation. Background counts were approximately 5% of control levels.
This example illustrates a comparison of inventive compounds nos. 1605, 1808 and 1906 on PDGF-induced (platelet derived growth factor) proliferation of human stromal cells. Human stromal cells were starved in serum-free media for 24 hours and then stimulated with 50 ng/ml of PDGF-BB. The drugs were added at various indicated concentrations one hour prior to PDGF stimulation. Tritiated thymidine was added for 24 hours at the time of PDGF stimulation to measure cellular proliferation. Background counts were approximately 5% of control levels.

[6] = test system: thymocytes; assay: thymocyte proliferation co-stimulated with Con A and/or IL-1α (FIG. 2); type: cell-based, Balb/C mice; settings: three dose levels
Method: The thymocytes were obtained from normal female Balb/C mice and stimulated with Concanavalin A (Con A) and/or interleukin-1 alpha (L-1α). Drugs were added to the cell cultures two hours before activation with Con A and/or IL-1α.
This example illustrates a comparison of three dose levels of inventive compounds nos. 1808 and 1906 and no drug control to inhibit thymocyte proliferation. The thymocytes were obtained from normal female Balb/C mice and co-stimulated with Concanavalin A (Con A) and/or IL-1α (interleukin-1 alpha). The thymuses were dissociated and plated into 96-well plates at a density of 2×10^5 cells/well. Dilutions of Con A and/or IL-1α were added to the wells and the cells were incubated for 4 days at 37° C. Drugs were added to the cell cultures two hours before activation with Con A and/or IL-1α. On day 4, the cells were pulsed with tritiated thymidine and allowed to incubate an additional 4 hrs. The cells were harvested and counted.

[7] = test system: PBMC (peripheral blood mononuclear cells); assay: two-way mixed lymphocyte reaction, PBMC (FIG. 1); type: cell-based
From the text: This example illustrates the effects of inventive compounds nos. 1605, 1808 and 1906 as immune modulators in a mixed lymphocyte reaction. […] 1605, 1808 and 1906.

[8] = test system: vascular cell adhesion molecule-1 (VCAM) in human umbilical vein endothelial cells (HUVEC); assay: cell surface expression of VCAM in TNF-α stimulated HUVEC, flow cytometry (FIG. 6); type: cell-based; settings: TNF-α 20 ng/ml, 20 hrs
Method: The HUVEC cells were stimulated with 20 ng/ml TNF-α for 20 hrs and then stained for immunofluorescence using a monoclonal antibody recognizing VCAM, followed by a goat anti-mouse antibody conjugated to phycoerythrin. The cells were analyzed for antibody binding using flow cytometry.
This example illustrates the effects of inventive compounds nos. 1605, 1808 and 1906 to inhibit cell surface expression of vascular cell adhesion molecule-1 (VCAM) in human umbilical vein endothelial cells (HUVEC). The HUVEC cells were stimulated with 20 ng/ml TNF-α for 20 hrs and then stained for immunofluorescence using a monoclonal antibody recognizing VCAM, followed by a goat anti-mouse antibody conjugated to phycoerythrin. The cells were analyzed for antibody binding using flow cytometry.

[9] = test system: thymocytes; assay: murine thymocyte proliferation assay co-stimulated by ConA and IL-2 (FIGS. 7A-7E); type: cell-based, Balb/C mice; settings: Mus musculus, FIG. 7A
From the text: This example illustrates dose response curves used to generate 50% inhibition concentrations (IC50) for inventive compounds nos. 1410, 1439, 1541, 1553, 1553S, 1560, 1565, 2548R, 2548S and 2562 in a murine thymocyte proliferation assay, co-stimulated by Concanavalin A (ConA) and interleukin-2 alpha (IL-2). ConA, used to activate the T-cell receptor (TCR), along with IL-2 co-stimulation, induces T-cell proliferation and differentiation. Thymuses, obtained from normal, female Balb/C mice, were dissociated and plated into 96-well plates at a density of 2×10^5 cells/well. ConA (0.25 mg/ml) and IL-2 (15 U/ml) were added to the wells. The cells were incubated for 4 days at 37° C. On day 4, the cells were pulsed with tritiated thymidine and incubated for an additional 4 hours. The amount of tritiated thymidine incorporated by the harvested cells was determined in a liquid scintillation counter. Doses of inventive compounds (shown in FIGS. 7A-7E) were added two hours prior to ConA and IL-2 activation. Background counts were less than 200 cpm. Results obtained, illustrate the ability of the inventive compounds to inhibit thymocyte proliferation and activation. In FIG. 7A, inventive compounds nos. […] FIG. 7B presents additional data for compound no. 1410 and 1553S in this assay. […] FIG. 7C reports assay results for inventive compounds nos. 1439, 1541, 1560 and 1565. […] FIGS. 7D and 7E illustrate assay results for inventive compounds nos. 1541, 1553, 1560 and 1565 (FIG. 7D) and 2562, […] (FIG. 7E). As is true of other inventive compounds tested, all these compounds represented in FIGS. 7D and 7E inhibit thymocyte proliferation. […] 1541, 1553, 1560, 1565, 2562, 2548R and 2548S, respectively.

[10] = test system: thymocytes; assay: IL-2 (ConA co-stimulated) induced proliferation of thymocytes; type: cell-based, mice; settings: Mus musculus, Thymocyte, 96 h; Table II; ConA 0.25 ug/ml / IL2 20 ng/ml, 4 days
Method: This example illustrates the effects of inventive compounds nos. 1105, 1114, 1413, 1439, 1594, 2518, 2548R, 2548S, 2562 and 3503 as effective inhibitors of IL-2 induced proliferation of thymocytes. Single cell suspensions of thymus gland cells obtained from 4-6 week old mice were prepared. Two-hundred thousand cells were plated into individual wells of flat-bottom 96-well plates in RPMI-1640-10% FCS medium. The invention compounds were then added to the wells at varying concentrations and the cells incubated for 1-2 hours at 37° C.
Following this pre-incubation a mixture of Concanavalin A (ConA) and Interleukin-2 (IL2) was added to the experimental wells at a final concentration of (0.25 ug/ml ConA)/(20 ng/ml IL2). Appropriate positive and negative controls were set up on each plate. Each variable was set up in quadruplicate.
The plates were incubated for 4 days at 37° C. in a humidified CO2 incubator. On day 4 the wells were pulsed with 1 μCi of tritiated thymidine(3H-TdR) and the plates incubated for an additional 4 hours. The plates were then harvested and the incorporation of 3H-TdR was determined in a liquid scintillation counter. From the CPM obtained from each experimental well an IC-50 for each inventive compound tested was determined. Therefore, a lower reported IC-50 value is indicative of greater inhibition of IL-2-induced proliferation of thymocytes. Table II illustrates IC-50 values (in μM) for inventive compounds inhibiting proliferation at very low concentrations of compound.

[11] = test system: LPS-induced TNF release in whole human blood; assay: LPS-induced TNF release in whole human blood (FIG. 14); type: cell-based; settings: LPS 10 ng/ml, read-out: inhibition of TNF-α induction
Method: This example illustrates inhibitive effects of the inventive compounds on LPS-induced TNF release. Data collected is reported as percent inhibition of LPS induced TNF release in whole human blood as compared with control values of TNF release.
In this assay, whole blood was collected from a healthy human donor into Vacutainer tubes containing ACD citrate anti-coagulant. Compounds to be tested were diluted in RPMI medium and added (5 μl) to tubes containing whole blood (225 μl). The tubes were mixed and incubated for a maximum of 1 hour at 37° C. LPS Salmonella abortus equi was diluted in RPMI and added to samples at 20 μl per tube (10 ng/ml final concentration). The prepared tubes were mixed and incubated for 4-6 hours at 37° C. The reaction was terminated by adding 750 μl of RPMI to each tube, then centrifuged to remove cells. Supernatants are collected and stored overnight at 4° C. Supernatant samples are assayed for TNF release using commercial immunoassay kits.

[12] = test system: normal human bone marrow stromal cells (MSC); assay: human bone marrow stromal cell (MSC) proliferation in response to PDGF BB and IL-1α; type: cell-based; settings: Table III, PDGF BB 50 ng/ml and IL-1α 10 ng/ml
Method: This example illustrates the effects of inventive compounds nos. 1114, 1413, 1560, 1565, 1594, 2518, 2548R, 2548S and 3503 as effective inhibitors of normal human bone marrow stromal cells (MSC) proliferation in response to Platelet Derived Growth Factor BB (PDGF B) and IL-1α (50 and 10 ng/ml, respectively).
MSC were obtained and malintained in exponential growth, released from a growth plate with trypsin and plated into 96 well tissue culture plates in the presence of Fibroblast Growth Factor (FGFβ) for 48 hours. Growth media were removed and the cells were washed once with serum free media. The cells were then incubated 20-24 hours in serum free media.
After incubation, inventive compounds were added to the cells at the appropriate concentration and then the cells again incubated for 1 hour. PDGF B and IL-1α were added to the cells along with 3H-thymidine and the cells again incubated for an additional 24 hours.
After 24 hours of incubation, the cells were then harvested to assess incorporation of ^3 H-thymidine into DNA (proliferation). From each harvested cell culture, an IC-50 for each inventive compound tested was determined. Therefore, a lower reported IC-50 value is indicatilve of greater activity of the invention compounds in inhibiting MSC proliferation. Table III illustrates IC-50 values (in μM) for invention compounds inhibiting MSC proliferation at very low concentrations of compound.

Cn1c(=O)n(CCCCCCCC2CO2)c(=O)c2c1ncn2COC(=O)C(C)(C)C (centres unmarked) [Compound 1409, 1-(8,9-Oxidononyl)-3-methyl-7-methylpivaloylxanthine]
cytotoxic effects [1]: without exhibiting cytotoxic effects
inhibition of Balb/3T3 proliferation [2]: inhibit Balb/3T3 proliferation

Cn1ccc(=O)n(CCCCC2CO2)c1=O (centres unmarked) [Compound 1808, 3-(5,6-Oxidohexyl)-1-methyluracil]
inhibition of B-cell proliferation [3]: inhibited proliferation
inhibition of U937 cell adhesion to HUVEC [4]: decrease in cell adhesion induced by TNF-α in a dose dependent fashion
inhibition of PDGF-induced proliferation [5]: inhibited PDGF-induced stimulation in a dose response fashion
inhibition of thymocyte proliferation [6]: inhibited thymocyte proliferation is a dose-dependent fashion
activity in mixed lymphocyte reaction (immune modulation) [7]: demonstrated activity
potency in mixed lymphocyte reaction compared with PTX ([7]; PTX not shown on graph): more potent than PTX
mean fluorescence (VCAM surface expression) [8]: Mean fluorescence levels were decreased
IC50 [9]: 99 µM

Cn1cnc2c1c(=O)n(CCCCCCCCCCC1CO1)c(=O)n2C (centres unmarked) [Compound 2518, 1-(11,12-Oxidodecyl)-3,7-dimethylxanthine]
IC50 [10]: 3.4 µM
inhibition at 50 µM [11]: 35%
IC50 [12]: 16.7 µM

CCCCCCCCC1OC1CCCCCCCCn1c(=O)c2c(ncn2C)n(C)c1=O (centres unmarked) [Compound 2541, 1-(9,10-Oxidooctadecyl)-3,7-dimethylxanthine]
inhibition at 50 µM [11]: 25%
